The supplement of paper PMC11451515

Columns and labels:
Details in all cases: 48 h
P12-Ichikawa [1] = experiment: AUC of viability dose-response curve (% viability x log10 dose units); higher = less sensitive
In short: (§1)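 Seeding of medium-adapted leukemia cells was at 500 or 1000 cells/well in 1536-well plates, followed by 48 h at 37°C with library compounds in DMSO at 11 threefold doses from 47 μM to 0.79 nM. CellTiter-Glo One luminescence was normalised per plate to DMSO and cell-free wells and fitted as a four-parameter log-logistic function of log10 dose. Area under the curve was integrated by trapezoidal rule, with curves exceeding full viability scaled and curves failing quality control removed.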

SEM cells [2] = experiment: as above
In short: as §1

NOMO1 [3] = experiment: cell viability relative to DMSO control; higher = less cytotoxic
In short: (§2)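 Viability is a per-plate percentage relative to DMSO wells, with cell-free wells as background. CellTiter-Glo One luminescence was read after 48 h at 37°C on 1536-well plates (5 μl) of NOMO1 or SEM (500 cells/well) or P12-Ichikawa (1000 cells/well) leukemia cells. The cells had been adapted for at least four passages in each medium and pin-dosed with library compounds in DMSO from 47 μM to 0.79 nM in 11 threefold steps.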

P12-Ichikawa [4] = experiment: as above
In short: as §2

SEM cells [5] = experiment: as above
In short: as §2

NOMO1 [6] = experiment: AUC of viability dose-response curve (% viability x log10 dose units); higher = less sensitive
In short: as §1

C[N]1C2=C(SC(=C2)[S+](C)[O-])C\3=C1C(=O)N(CC4=CC(=CC=C4)N)\N=C3 (configuration not stated)
AUC of viability dose-response curve
Details	HPLM + 10% dialyzed FBS	RPMI 5 mM glucose + 10% FBS	RPMI 5 mM glucose + 10% dialyzed FBS
P12-Ichikawa [1]	414	404	392
SEM cells [2]	426	426	403

CC1(C)CCC(=C(CN2CCN(CC2)C3=CC=C(C=C3)C(=O)N[S+]([O-])(=O)C4=CC(=C(N[C@H](CCN5CCOCC5)CSC6=CC=CC=C6)C=C4)[S+]([O-])(=O)C(F)(F)F)\C1)/C7=CC=C(Cl)C=C7
cell viability [%]
Details	NOMO1 [3]	P12-Ichikawa [4]	SEM cells [5]
HPLM + 10% dialyzed FBS, 0.000781 µM	124	116	124
HPLM + 10% dialyzed FBS, 0.00234 µM	132	120	124
HPLM + 10% dialyzed FBS, 0.00702 µM	123	121	126
HPLM + 10% dialyzed FBS, 0.0211 µM	128	122	106
HPLM + 10% dialyzed FBS, 0.0632 µM	116	92.5	80.9
HPLM + 10% dialyzed FBS, 0.19 µM	112	40.9	18.3
HPLM + 10% dialyzed FBS, 0.569 µM	96.7	20	11.3
HPLM + 10% dialyzed FBS, 1.71 µM	57.1	6.68	8.83
HPLM + 10% dialyzed FBS, 5.12 µM	49.2	7.29	8.56
HPLM + 10% dialyzed FBS, 15.4 µM	39.2	7.3	7.32
HPLM + 10% dialyzed FBS, 46.1 µM	43.2	4.74	5.38
RPMI 5 mM glucose + 10% FBS, 0.000781 µM	–	–	85.5
RPMI 5 mM glucose + 10% FBS, 0.00234 µM	–	–	108
RPMI 5 mM glucose + 10% FBS, 0.00702 µM	–	–	95.9
RPMI 5 mM glucose + 10% FBS, 0.0211 µM	–	–	82.8
RPMI 5 mM glucose + 10% FBS, 0.0632 µM	–	–	42.1
RPMI 5 mM glucose + 10% FBS, 0.19 µM	–	–	19.6
RPMI 5 mM glucose + 10% FBS, 0.569 µM	–	–	8.77
RPMI 5 mM glucose + 10% FBS, 1.71 µM	–	–	6.49
RPMI 5 mM glucose + 10% FBS, 5.12 µM	–	–	5.65
RPMI 5 mM glucose + 10% FBS, 15.4 µM	–	–	5.78
RPMI 5 mM glucose + 10% FBS, 46.1 µM	–	–	4.31
RPMI 5 mM glucose + 10% dialyzed FBS, 0.000781 µM	116	120	111
RPMI 5 mM glucose + 10% dialyzed FBS, 0.00234 µM	125	124	135
RPMI 5 mM glucose + 10% dialyzed FBS, 0.00702 µM	118	127	100
RPMI 5 mM glucose + 10% dialyzed FBS, 0.0211 µM	117	122	102
RPMI 5 mM glucose + 10% dialyzed FBS, 0.0632 µM	90.1	109	49.6
RPMI 5 mM glucose + 10% dialyzed FBS, 0.19 µM	78.9	73.4	21
RPMI 5 mM glucose + 10% dialyzed FBS, 0.569 µM	61.7	39.1	9.94
RPMI 5 mM glucose + 10% dialyzed FBS, 1.71 µM	23.9	7.42	6.79
RPMI 5 mM glucose + 10% dialyzed FBS, 5.12 µM	24.7	7.07	6.8
RPMI 5 mM glucose + 10% dialyzed FBS, 15.4 µM	29.9	6.25	5.99
RPMI 5 mM glucose + 10% dialyzed FBS, 46.1 µM	22.5	4.69	4.42

AUC of viability dose-response curve
Details	NOMO1 [6]	P12-Ichikawa [1]	SEM cells [2]
HPLM + 10% dialyzed FBS	357	235	216
RPMI 5 mM glucose + 10% FBS	332	240	197
RPMI 5 mM glucose + 10% dialyzed FBS	291	259	197
